The values below come from article PMC9716094, “Synthesis of novel amidines via one-pot three component reactions: Selective topoisomerase I inhibitors with antiproliferative properties” (Frontiers in Chemistry, 2022).

Broadly, the inhibition is the change of the read-out against control, counted positive when it falls. The term IC50 denotes the concentration needed to halve the response being measured. The term viability denotes the share of living cells, or the viability signal relative to a control. Read a low viability as a greater loss of cells. By melting point is commonly meant the temperature of the solid-liquid transition.

Series [1] has as its target T1, recombinant human DNA topo I (Homo sapiens, UniProt P11387).
T1 construct: purchased Topo GEN INC., USA
T1 sequence (P11387 1-765): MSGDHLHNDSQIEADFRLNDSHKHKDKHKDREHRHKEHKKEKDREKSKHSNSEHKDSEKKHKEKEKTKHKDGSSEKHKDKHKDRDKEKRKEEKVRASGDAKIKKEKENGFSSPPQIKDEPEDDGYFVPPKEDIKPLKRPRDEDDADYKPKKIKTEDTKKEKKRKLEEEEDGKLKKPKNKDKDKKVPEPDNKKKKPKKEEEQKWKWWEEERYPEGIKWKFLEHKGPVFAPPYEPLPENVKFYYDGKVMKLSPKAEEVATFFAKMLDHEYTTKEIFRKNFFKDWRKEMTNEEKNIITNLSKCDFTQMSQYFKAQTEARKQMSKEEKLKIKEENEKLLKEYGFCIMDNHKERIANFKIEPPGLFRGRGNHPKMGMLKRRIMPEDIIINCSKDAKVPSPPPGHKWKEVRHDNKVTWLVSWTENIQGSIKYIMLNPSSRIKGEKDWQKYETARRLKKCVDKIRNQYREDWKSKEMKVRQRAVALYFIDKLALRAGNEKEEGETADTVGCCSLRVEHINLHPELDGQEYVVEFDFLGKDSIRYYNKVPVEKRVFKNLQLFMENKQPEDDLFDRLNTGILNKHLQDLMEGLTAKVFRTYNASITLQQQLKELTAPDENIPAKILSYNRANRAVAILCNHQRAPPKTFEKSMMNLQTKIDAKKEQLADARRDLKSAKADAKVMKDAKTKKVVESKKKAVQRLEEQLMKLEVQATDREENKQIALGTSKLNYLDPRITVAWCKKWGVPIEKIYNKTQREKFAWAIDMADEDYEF
Description: Topo I inhibitory assay (pBR322 relaxation). The series is classed as biochemical. The method, then:
(§1) All the tested compounds were dissolved in DMSO and the DNA topoisomerase I and II inhibitory activity of each compound was measured as follows according to previously reported methods. Mixture comprising of 100 ng supercoiled pBR322 plasmid DNA (Thermo Scientific, USA) and 0.2 ~ 1 unit of recombinant human DNA topo I (Topo GEN INC., USA) or topo IIα (USB Corp., USA) was incubated with or without the prepared compounds in the assay buffer (For topo I, 10 mM Tris-HCl (pH 7.9), 150 mM NaCl and 0.1% BSA, 0.1 mM spermidine and 5% glycerol; for topo II, 10 mM Tris-HCl (pH 7.9), 50 mM NaCl, 50 mM KCl, 5 mM MgCl2, 1 mM EDTA, 1 mM ATP and […] BSA) for 30 min at 37 ◦C. The reaction with final volume of 10 μL was stopped by adding the topo stop buffer (For topo I, 10% SDS solution containing 0.2% bromophenol blue, 0.2% xylene cyanol and 30% glycerol; for topo II, 7 mM EDTA). The reaction products were electrophoresed on 0.8% agarose gel at 50 V for 1 h with TAE electrophoresis buffer. The gels were stained in an EtBr solution (0.5 mg/mL) and visualized by transillumination with UV light and were quantitated using Alpha Tech ImagerTM (Alpha Innotech Corp., USA).

For series [2], the system named is Panc-1 (pancreas cancer cell line). Briefly: Antiproliferative assay, Panc-1. The format is cell-based. As to conditions: Homo sapiens, read-out: Antiproliferative activity IC50 ± SEM, Panc-1. From the text:
(§2) See Supplementary Appendix S1A.
(§3) DMSO (0.1%) was used as control.

Series [3] is described as follows: Cell viability assay (MTT) on normal cell line.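 Also: values are percent cell viability not percent inhibition.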 The format is cell-based. As to conditions: human, MCF-10A mammary epithelial cells, 50 µM of compound. How it is done: To study the effect of 4a-l and 5a-c on normal cell lines, a cell viability assay was done using the MCF-10A (human mammary gland epithelial) cell line ([Abdelbaset et al., 2019]; [Al-Wahaibi et al., 2020]). This study uses a concentration of 50 µM of the investigated compound for 4 days, after which cell viability is evaluated.
To study the effect of 4a-l and 5a-c on normal cell lines, a cell viability assay was done using the MCF-10A (human mammary gland epithelial) cell line ([Abdelbaset et al., 2019]; [Al-Wahaibi et al., 2020]). See Supplementary Appendix S1A.
MTT assay was carried out to study the effect of compounds on mammary epithelial cells (MCF-10A). The medium in which cells were propagated contained Dulbecco's modified Eagle's medium (DMEM)/ Ham's F-12 medium (1:1) supplemented with epidermal growth factor (20 ng/mL), hydrocortisone (500 ng/mL), insulin (10 μg/mL), 2 mM glutamine and 10% fetal calf serum. After every 2-3 days, the cells were passaged using trypsin ethylenediamine tetra acetic acid (EDTA). The cells were seeded at a density of 10^4 cells mL^-1 in flat-bottomed culture plates containing 96 wells each. After 24 h, medium was removed from the plates and the compounds in (in 0.1% DMSO) were added (in 200 μL medium to yield a final concentration of 0.1% v/v) to the wells of plates. A single compound was designated with four wells followed by incubation of plates for 96h at 37°C. After incubation, medium was removed completely from the plates followed by addition of MTT (0.4 mg/mL in medium) to each well and subsequent incubation of plates for 3h. MTT (along with the medium) was removed and DMSO (150μL) was added to each well of the culture plates, followed by vortexing and subsequent measurement of absorbance (at 540 nm) using microplate reader. The data are shown as percentage inhibition of proliferation in comparison with controls containing 0.1% DMSO.

Series [4] relates to MCF-7 (breast cancer cell line). Description: Antiproliferative assay, MCF-7. The series is classed as cell-based. As to conditions: Homo sapiens, MCF7; read-out: Antiproliferative activity IC50 ± SEM, MCF-7.
Text: as §2, §3

Series [5] deals with HT-29 (colon cancer cell line). Briefly: Antiproliferative assay, HT-29. As to conditions: Homo sapiens, HT-29, read-out: Antiproliferative activity IC50 ± SEM, HT-29.
Description: (§4) The IC50 of each compound was calculated using doxorubicin as the reference.
(§5) To explore the antiproliferative potential of compounds MTT assay was performed according to previously reported procedure using different cell lines to explore the antiproliferative potential of compounds propidium iodide fluorescence assay was performed using different cell lines. To calculate the total nuclear DNA, a fluorescent dye (propidium iodide, PI) is used which can attach to the DNA, thus offering a quick and precise technique. PI cannot pass through the cell membrane and its signal intensity can be considered as directly proportional to quantity of cellular DNA. Cells whose cell membranes are damaged or have changed permeability are counted as dead ones. The assay was performed by seeding the cells of different cell lines at a density of 3000-7500 cells/well (in 200µl medium) in culture plates followed by incubation for 24h at 37 °C in humidified 5% CO2/95% air atmospheric conditions. The medium was removed; the compounds were added to the plates at 10 µM concentrations (in 0.1% DMSO) in triplicates, followed by incubation for 48 h. DMSO (0.1%) was used as control. After incubation, medium was removed followed by the addition of PI (25 µl, 50µg/mL in water/medium) to each well of the plates. At -80 °C, the plates were allowed to freeze for 24 h, followed by thawing at 25 °C. A fluorometer (Polar-Star BMG Tech) was used to record the readings at excitation and emission wavelengths of 530 and 620 nm for each well. The percentage cytotoxicity of compounds was calculated using the following formula:
Series [6] relates to A-549 (epithelial cancer cell line). Description: Antiproliferative assay, A-549. The series is classed as cell-based. As to conditions: Homo sapiens, A549; read-out: Antiproliferative activity IC50 ± SEM, A-549.
Text: as §2, §3

The next series has as its target T2, topo IIα (Homo sapiens, UniProt P11388).
T2 construct: purchased USB Corp., USA
Briefly: Topo IIα inhibitory assay (pBR322 relaxation). The format is biochemical. The method, then:
as §1

Series [7] has as its system four cancer cell lines (A-549, MCF-7, Panc-1, HT-29). Briefly: Antiproliferative assay, average over the four cancer cell lines (GI50). As to conditions: read-out: Antiproliferative activity IC50, Average (mean GI50).
Description: as §4, §5

T2 sequence (P11388 whole entry): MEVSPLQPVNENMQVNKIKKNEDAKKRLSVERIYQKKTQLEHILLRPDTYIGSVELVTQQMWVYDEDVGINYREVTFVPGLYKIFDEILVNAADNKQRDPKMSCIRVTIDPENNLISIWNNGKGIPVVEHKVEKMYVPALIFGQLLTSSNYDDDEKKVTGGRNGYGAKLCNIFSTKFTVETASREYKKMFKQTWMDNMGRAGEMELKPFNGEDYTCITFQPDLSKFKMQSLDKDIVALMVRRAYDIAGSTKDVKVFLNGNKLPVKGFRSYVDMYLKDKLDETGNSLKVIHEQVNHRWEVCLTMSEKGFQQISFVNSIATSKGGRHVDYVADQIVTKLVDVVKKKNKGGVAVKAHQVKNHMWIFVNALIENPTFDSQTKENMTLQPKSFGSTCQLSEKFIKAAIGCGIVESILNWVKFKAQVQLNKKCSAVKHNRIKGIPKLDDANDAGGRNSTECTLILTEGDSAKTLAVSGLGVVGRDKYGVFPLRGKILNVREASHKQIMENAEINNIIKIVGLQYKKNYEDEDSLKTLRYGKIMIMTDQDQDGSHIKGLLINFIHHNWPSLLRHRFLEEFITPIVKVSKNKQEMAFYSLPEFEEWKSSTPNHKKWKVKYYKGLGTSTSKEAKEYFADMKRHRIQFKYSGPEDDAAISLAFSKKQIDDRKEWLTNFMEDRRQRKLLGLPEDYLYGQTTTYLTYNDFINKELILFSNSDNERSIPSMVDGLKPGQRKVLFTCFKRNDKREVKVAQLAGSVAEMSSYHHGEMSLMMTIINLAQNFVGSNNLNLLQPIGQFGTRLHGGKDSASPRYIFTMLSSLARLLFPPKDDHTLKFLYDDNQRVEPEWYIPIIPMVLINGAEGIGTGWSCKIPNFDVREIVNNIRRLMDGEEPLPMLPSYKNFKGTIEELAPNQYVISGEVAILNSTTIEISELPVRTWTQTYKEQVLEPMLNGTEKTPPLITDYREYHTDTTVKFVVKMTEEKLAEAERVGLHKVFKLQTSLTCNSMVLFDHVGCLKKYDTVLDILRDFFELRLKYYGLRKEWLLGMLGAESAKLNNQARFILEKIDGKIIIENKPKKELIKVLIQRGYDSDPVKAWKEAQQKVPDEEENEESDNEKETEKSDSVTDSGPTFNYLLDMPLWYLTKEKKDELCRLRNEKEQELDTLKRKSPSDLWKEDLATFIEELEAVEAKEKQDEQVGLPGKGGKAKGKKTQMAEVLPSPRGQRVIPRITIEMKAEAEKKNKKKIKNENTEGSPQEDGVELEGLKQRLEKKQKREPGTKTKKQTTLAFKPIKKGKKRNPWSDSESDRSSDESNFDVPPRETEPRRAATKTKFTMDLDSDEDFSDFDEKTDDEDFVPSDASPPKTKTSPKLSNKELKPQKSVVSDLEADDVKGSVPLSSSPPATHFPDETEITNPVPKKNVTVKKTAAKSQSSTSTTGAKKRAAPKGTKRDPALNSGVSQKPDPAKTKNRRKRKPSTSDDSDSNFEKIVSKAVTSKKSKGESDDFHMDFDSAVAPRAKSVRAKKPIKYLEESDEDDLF

Take `CC[C@@]1(O)C(=O)OCc2c1cc1n(c2=O)Cc2cc3ccccc3nc2-1` [Camptothecin, reference compound]: in [1], the inhibition at 20 µM worked out at 40% and the inhibition at 100 µM is 82.6%.
`Cc1ccc2[nH]c(=O)cc(/N=C(\C3CCCC3)N3CCCCC3)c2c1` [Compound 4b, (E) 4-((Cyclopentyl(piperidin-1-yl)methylene)amino)-6-methylquinolin-2(1H)-one] yielded a melting point of 222 °C. Besides, in series [2], the IC50 was 1.5 ± 0.1 µM. In series [3], this compound registered a viability at 4 days, 50 µM of 92%. For the same compound, in [4], the IC50 was 1.4 ± 0.1 µM. In series [5], the IC50 stood at 1.6 ± 0.1 µM. Also, in [1], the inhibition at 20 µM stood at 29.6% and the inhibition at 100 µM is 65.9%. Further, the IC50 in series [6] amounted to 1.5 ± 0.1 µM. On topo IIα, this compound returned an inhibition at 20 µM of 22.3% and an inhibition at 100 µM of 57.2%. Further, the half-maximal inhibitory concentration (IC50) in series [7] came out at 1.5 µM.
In turn, `O=c1cc(/N=C(\C2CCCC2)N2CCCCC2)c2cc(Cl)ccc2[nH]1` [Compound 4d, (E) 4-((Cyclopentyl(piperidin-1-yl)methylene)amino)-6-chloroquinolin-2(1H)-one] gave a melting point of 248 °C. Also, the IC50 in series [2] was 1.3 ± 0.1 µM. The compound also gave a viability at 4 days, 50 µM in series [3] of 92%. Moreover, in [4], the IC50 was 1.2 ± 0.1 µM. For the same compound, the IC50 in series [5] is 1.4 ± 0.1 µM. Besides, in [1], the inhibition at 20 µM turned out to be 34.7% and the inhibition at 100 µM was determined as 71.6%. In series [6], the IC50 was found to be 1.5 ± 0.1 µM. At topo IIα, this compound returned an inhibition at 20 µM of 21.7% and an inhibition at 100 µM of 54.2%. Also, the 50% inhibitory concentration (IC50) in series [7] was determined as 1.35 µM.
With `Cc1cccc2c(/N=C(\C3CCCC3)N3CCCCC3)cc(=O)[nH]c12` [Compound 4e, (E) 4-((Cyclopentyl(piperidin-1-yl)methylene)amino)-8-methylquinolin-2(1H)-one], the melting point was 184 °C. The concentration for half-maximal inhibition (IC50) in series [2] stood at 1.2 ± 0.1 µM. Besides, the viability at 4 days, 50 µM in series [3] amounted to 90%. Besides, the IC50 in series [4] is 1.1 ± 0.1 µM. The IC50 in series [5] is 1.2 ± 0.1 µM. In [1], the inhibition at 20 µM came out at 39.1% and the inhibition at 100 µM amounted to 81.4%. In series [6], the IC50 was found to be 1.3 ± 0.1 µM. In addition, at topo IIα, the inhibition at 20 µM turned out to be 25.6% and the inhibition at 100 µM amounted to 60.4%. In addition, the half-maximal inhibitory concentration (IC50) in series [7] turned out to be 1.2 µM.
Turning to `COc1ccc2[nH]c(=O)cc(/N=C(\C3CCCC3)N3CCOCC3)c2c1` [Compound 4i, (E) 4-((Cyclopentyl(morpholino)methylene)amino)-6-methoxyquinolin-2(1H)-one], the melting point came to 247 °C. Further, the half-maximal inhibitory concentration (IC50) in [2] stood at 1.6 ± 0.2 µM. For the same compound, the viability at 4 days, 50 µM in series [3] stood at 89%. For the same compound, the IC50 in series [4] amounted to 1.4 ± 0.2 µM. Further, the 50% inhibitory concentration (IC50) in series [5] worked out at 1.2 ± 0.2 µM. In addition, in series [1], the inhibition at 20 µM came to 37.2% and the inhibition at 100 µM was 74.9%. Besides, the half-inhibitory concentration (IC50) in series [6] was 1.1 ± 0.2 µM. On topo IIα, this compound came in with an inhibition at 20 µM of 23.1% and an inhibition at 100 µM of 56.7%. In series [7], the IC50 was 1.3 µM.
Regarding `Cn1c(=O)cc(/N=C(\C2CCCC2)N2CCN(/C(=N/c3cc(=O)n(C)c4ccccc34)C3CCCC3)CC2)c2ccccc21` [Compound 5c, 4,4'-((1E,1′E)-(piperazine-1,4-diylbis(cyclopentylmethanylylidene))bis(azanylylid-ene))bis(1-methylquinolin-2(1H)-one)], the melting point was found to be 342 °C. The half-maximal inhibitory concentration (IC50) in series [2] is 0.9 ± 0.1 µM. The viability at 4 days, 50 µM in [3] was 89%. The 50% inhibitory concentration (IC50) in [4] worked out at 0.8 ± 0.1 µM. Also, in series [5], the IC50 was 1.1 ± 0.1 µM. Besides, in [1], the inhibition at 20 µM is 46.7% and the inhibition at 100 µM is 84.8%. In addition, in series [6], the IC50 was 1.1 ± 0.1 µM. The compound further returned an inhibition at 100 µM against topo IIα of 23.8%. For the same compound, the IC50 in series [7] was 1 µM.
Regarding `COc1cc([C@@H]2c3cc4c(cc3[C@@H](O[C@@H]3O[C@@H]5CO[C@@H](C)O[C@H]5[C@H](O)[C@H]3O)[C@H]3COC(=O)[C@H]23)OCO4)cc(OC)c1O` [Etoposide, reference compound], at topo IIα, at 20 µM the inhibition was 66% and at 100 µM the inhibition was 83.7%.
